Data: patent US11629155B2, “Small molecule antagonist compound TAC5 series having toll-like receptor 3/7/8/9 inhibitory function” (AJOU UNIVERSITY INDUSTRY-ACADEMIC COOPERATION FOUNDATION, priority 2018, dated 2023)

Experiments:
[1] = tested on: C57BL/6 mice, IMQ-induced psoriasis; assay: IMQ-induced psoriasis mouse model; assay type: in vivo
Protocol: The therapeutic efficacy of TAC5-a was evaluated in a psoriasis mouse model and a SLE mouse model. Psoriasis was induced in 6-7 week old C57BL/6 mice by topically applying 42 mg of IMQ cream (5%) to the shaved back skin of the mice for 6 consecutive days (FIG. 5A). TAC5-a was injected daily at doses of 50, 100 and 200 nmol/g and the effect thereof on severity was analyzed.
Histological analysis and immunochemical staining were performed on skin samples of mouse dorsal lesions. The sample was fixed with 4% paraformaldehyde solution, then embedded in paraffin and cut to 7 μm on a glass slide. The sections were stained with hematoxylin and eosin (H&E) and the thickness of the dermis and epidermis were measured. The thickness of skin was measured with a Leica DMi8 fluorescence microscope using a Leica LAS X Hardware Configurator (Leica Microsystems GmbH, Wetzlar, Germany). IMQ-mediated skin inflammation was evaluated by immunohistochemistry (IHC) using a primary antibody that recognizes CD68 (ab31630, 1:200 dilution) as a macrophage marker. […] The skin was stained with hematoxylin and eosin (H&E) in order to evaluate the thickness of the epidermis (yellow arrow) and dermis (green arrow) in IMQ-induced psoriasis mice and thereby to observe the histopathological changes of skin lesions in each group (FIG. 5G) Immunohistochemical analysis of skin lesions in each group was performed using a primary antibody that recognizes CD68.

[2] = tested on: TLR7/8; assay: TLR7/8-mediated IL-6 expression in THP-1 cells; assay type: cell-based, human; conditions: FIG. 4C
Protocol: RAW264.7 cells (ATCC, Manassas, Va., USA), which are mouse macrophages, were cultured in low-glucose DMEM (Thermo Fisher Scientific Inc.) supplemented with 10% FBS, 100 IU/ml penicillin and 100 μg/ml streptomycin in a culture system. Human monocyte THP1 cells were cultured in RPMI 1640 (Thermo Fisher Scientific Inc.) supplemented with 10% FBS, 100 IU/ml penicillin and 100 μg/ml streptomycin and then differentiation thereof into macrophages was induced using 10 nM phorbol 12-myristate 13-acetate (PMA) (Sigma-Aldrich Co. LLC.) for 24 hours. CL075, R848, CpG-ODN and Poly(I:C) were purchased from InvivoGen (San Diego, Calif., USA), and LPS was purchased from Sigma-Aldrich Co. (St. Louis, Mo., USA).
Cytotoxicity in RAW 264.7 cells was tested by treatment with these compounds at a concentration of 12.5 to 50 μM. […] The inhibitory effect of TAC5-a on TLR-mediated signaling was confirmed by measuring TNF-α secretion through ELISA in THP1-derived macrophages. […] In addition, in order to evaluate the antagonistic effect of TAC5-a on endosomal TLR activation, cells were cultured along with this compound in the presence of R848 (TLR7/8) or CL075 (TLR7/8), imiquimod (IMQ; TLR7), TL8 (TLR8), poly(I:C) (TLR3) or CpG ODN (TLR9) (FIGS. 4E, 4F and 4G).

[3] = molecular target: T1, TLR1/2 (Homo sapiens, UniProt O60603+Q15399); assay: Pam3CSK4-induced TNF-α secretion (ELISA) in THP1-derived macrophages; assay type: cell-based; conditions: 1 to 50 μM, FIG. 4D
T1 construct: endogenous in cells; host or cells: THP1-derived macrophages (PMA-differentiated)
T1 sequence (Q15399 25-786): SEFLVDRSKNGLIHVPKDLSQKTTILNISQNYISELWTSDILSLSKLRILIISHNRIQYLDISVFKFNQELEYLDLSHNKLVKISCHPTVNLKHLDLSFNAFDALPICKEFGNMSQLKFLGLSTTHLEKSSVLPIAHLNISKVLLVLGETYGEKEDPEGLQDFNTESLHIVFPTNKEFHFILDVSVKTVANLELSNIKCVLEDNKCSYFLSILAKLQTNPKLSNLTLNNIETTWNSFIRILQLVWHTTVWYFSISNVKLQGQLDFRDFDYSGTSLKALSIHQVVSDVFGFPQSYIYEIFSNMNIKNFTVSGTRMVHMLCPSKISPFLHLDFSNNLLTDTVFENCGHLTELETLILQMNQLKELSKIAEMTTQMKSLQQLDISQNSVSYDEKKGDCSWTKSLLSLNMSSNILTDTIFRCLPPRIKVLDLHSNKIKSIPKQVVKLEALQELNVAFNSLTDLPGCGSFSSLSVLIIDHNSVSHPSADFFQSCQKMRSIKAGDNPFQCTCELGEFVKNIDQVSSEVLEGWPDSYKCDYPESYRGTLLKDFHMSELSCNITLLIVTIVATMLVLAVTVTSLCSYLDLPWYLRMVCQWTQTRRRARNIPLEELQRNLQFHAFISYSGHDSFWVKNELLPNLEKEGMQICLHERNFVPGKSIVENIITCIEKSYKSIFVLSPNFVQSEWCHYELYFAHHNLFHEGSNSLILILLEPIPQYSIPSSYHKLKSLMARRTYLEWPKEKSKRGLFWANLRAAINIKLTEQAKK
T1 sequence (O60603 21-784): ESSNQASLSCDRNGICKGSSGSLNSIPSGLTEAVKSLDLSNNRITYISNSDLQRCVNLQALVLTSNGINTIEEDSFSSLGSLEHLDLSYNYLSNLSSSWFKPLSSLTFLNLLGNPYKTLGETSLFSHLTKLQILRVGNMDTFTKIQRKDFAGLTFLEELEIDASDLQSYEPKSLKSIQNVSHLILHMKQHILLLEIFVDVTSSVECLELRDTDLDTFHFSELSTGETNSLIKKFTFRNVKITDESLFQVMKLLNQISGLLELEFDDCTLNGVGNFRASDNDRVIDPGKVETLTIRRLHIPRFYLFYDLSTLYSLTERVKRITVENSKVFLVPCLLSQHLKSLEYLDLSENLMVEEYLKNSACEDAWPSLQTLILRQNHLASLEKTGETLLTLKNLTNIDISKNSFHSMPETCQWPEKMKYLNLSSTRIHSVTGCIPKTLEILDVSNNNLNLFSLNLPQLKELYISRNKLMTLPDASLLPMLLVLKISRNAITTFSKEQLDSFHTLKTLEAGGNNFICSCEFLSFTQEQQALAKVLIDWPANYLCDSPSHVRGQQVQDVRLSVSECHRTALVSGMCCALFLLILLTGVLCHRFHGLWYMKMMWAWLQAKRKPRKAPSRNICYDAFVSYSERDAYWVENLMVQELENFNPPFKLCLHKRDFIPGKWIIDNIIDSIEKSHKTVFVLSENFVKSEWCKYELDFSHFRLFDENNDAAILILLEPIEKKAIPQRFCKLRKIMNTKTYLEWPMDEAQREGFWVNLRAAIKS

[4] = molecular target: T2, TLR2/6 (Homo sapiens, UniProt O60603+Q9Y2C9); assay: FSL-1-induced TNF-α secretion (ELISA) in THP1-derived macrophages; assay type: cell-based; conditions: 1 to 50 μM, FIG. 4D
T2 construct: endogenous in cells; host or cells: THP1-derived macrophages (PMA-differentiated)
T2 sequence (O60603 21-784): as above
T2 sequence (Q9Y2C9 32-796): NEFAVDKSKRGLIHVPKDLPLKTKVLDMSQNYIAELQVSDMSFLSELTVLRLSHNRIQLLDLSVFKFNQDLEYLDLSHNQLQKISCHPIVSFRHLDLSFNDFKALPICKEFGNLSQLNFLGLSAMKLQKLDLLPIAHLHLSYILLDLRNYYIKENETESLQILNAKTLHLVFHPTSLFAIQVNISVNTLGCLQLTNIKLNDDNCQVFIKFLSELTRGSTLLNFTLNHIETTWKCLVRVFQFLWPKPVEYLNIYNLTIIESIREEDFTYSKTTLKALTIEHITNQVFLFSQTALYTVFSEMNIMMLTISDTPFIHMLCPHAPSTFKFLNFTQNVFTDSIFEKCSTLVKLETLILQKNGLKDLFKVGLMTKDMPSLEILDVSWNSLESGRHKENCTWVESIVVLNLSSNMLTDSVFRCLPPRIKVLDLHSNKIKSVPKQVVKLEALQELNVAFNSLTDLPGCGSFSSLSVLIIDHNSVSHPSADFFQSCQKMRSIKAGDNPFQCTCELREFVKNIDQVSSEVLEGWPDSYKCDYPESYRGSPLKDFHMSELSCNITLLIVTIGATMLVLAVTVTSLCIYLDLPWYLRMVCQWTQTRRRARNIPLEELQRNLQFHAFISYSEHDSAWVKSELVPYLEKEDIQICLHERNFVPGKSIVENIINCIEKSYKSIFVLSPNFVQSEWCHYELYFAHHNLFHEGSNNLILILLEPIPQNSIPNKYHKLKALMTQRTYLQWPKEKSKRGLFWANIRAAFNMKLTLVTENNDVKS

[5] = molecular target: T3, TLR3 (Homo sapiens, UniProt O15455); assay: poly(I:C)-induced TNF-α or IL-6 secretion in THP1-derived macrophages; assay type: cell-based; conditions: dose-dependent manner, FIGS. 4E-4G
T3 construct: endogenous in cells; host or cells: THP1-derived macrophages (PMA-differentiated)
T3 sequence (O15455 24-904): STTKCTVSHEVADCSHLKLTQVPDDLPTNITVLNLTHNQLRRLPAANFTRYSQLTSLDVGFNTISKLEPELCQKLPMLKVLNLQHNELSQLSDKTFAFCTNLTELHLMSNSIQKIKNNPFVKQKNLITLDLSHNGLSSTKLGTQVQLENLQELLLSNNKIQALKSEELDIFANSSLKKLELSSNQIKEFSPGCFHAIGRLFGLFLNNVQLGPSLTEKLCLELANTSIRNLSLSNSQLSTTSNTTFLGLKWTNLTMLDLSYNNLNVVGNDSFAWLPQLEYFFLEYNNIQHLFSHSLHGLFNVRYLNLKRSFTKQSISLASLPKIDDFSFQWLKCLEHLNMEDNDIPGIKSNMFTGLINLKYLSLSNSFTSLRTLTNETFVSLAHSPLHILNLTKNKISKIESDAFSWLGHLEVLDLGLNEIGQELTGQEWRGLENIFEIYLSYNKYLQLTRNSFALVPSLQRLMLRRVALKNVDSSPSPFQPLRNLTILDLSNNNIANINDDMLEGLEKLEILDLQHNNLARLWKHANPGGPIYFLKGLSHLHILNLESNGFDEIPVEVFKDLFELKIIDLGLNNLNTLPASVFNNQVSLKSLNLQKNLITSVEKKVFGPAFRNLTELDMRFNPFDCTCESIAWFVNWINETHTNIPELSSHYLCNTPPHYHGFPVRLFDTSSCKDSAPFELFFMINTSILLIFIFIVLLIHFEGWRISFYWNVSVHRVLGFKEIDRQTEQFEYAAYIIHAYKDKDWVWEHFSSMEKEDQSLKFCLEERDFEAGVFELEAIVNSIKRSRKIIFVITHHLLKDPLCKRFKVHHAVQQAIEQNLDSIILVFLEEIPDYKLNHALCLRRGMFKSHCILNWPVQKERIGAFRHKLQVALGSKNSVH

[6] = molecular target: T4, TLR8 (Homo sapiens, UniProt Q9NR97); assay: TL8, R848 or CL075-induced TNF-α or IL-6 secretion in THP1-derived macrophages; assay type: cell-based; conditions: TL8, R848 or CL075, dose-dependent manner, FIGS. 4E-4G
T4 construct: endogenous in cells; host or cells: THP1-derived macrophages (PMA-differentiated)
T4 sequence (Q9NR97 27-1041): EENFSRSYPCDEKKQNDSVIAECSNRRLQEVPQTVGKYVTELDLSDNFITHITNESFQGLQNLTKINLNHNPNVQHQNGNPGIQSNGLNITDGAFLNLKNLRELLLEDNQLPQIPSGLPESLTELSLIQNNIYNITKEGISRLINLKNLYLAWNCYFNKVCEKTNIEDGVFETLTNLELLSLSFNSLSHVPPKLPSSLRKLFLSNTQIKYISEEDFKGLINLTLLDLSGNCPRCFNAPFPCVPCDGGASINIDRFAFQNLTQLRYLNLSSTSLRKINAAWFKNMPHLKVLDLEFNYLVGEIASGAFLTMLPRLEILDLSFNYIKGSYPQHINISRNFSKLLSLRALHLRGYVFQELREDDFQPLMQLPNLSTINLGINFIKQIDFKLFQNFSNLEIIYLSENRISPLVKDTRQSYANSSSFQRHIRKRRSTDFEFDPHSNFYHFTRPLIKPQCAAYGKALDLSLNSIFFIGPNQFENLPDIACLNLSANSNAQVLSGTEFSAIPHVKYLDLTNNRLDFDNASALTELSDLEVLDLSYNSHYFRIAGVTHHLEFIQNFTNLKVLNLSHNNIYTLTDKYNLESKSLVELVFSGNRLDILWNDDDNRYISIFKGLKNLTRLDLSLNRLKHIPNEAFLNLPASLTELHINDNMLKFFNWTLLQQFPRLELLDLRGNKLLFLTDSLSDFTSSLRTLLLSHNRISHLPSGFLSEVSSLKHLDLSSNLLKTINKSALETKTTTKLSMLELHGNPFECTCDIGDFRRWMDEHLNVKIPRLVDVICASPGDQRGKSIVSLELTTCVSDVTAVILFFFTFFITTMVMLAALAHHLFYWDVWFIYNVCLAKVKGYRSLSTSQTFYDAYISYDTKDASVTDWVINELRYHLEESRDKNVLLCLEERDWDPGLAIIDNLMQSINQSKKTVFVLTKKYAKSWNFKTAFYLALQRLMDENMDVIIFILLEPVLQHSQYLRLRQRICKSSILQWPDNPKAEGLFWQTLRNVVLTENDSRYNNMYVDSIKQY

TLR1/2 (Pam3CSK4)-mediated TNF-α secretion [3]: did not block
TLR2/6 (FSL-1)-mediated TNF-α secretion [4]: did not block
TLR3-mediated TNF-α or IL-6 secretion [5]: significantly inhibited
TLR8-mediated TNF-α or IL-6 secretion [6]: significantly inhibited
Compound: Nc1cccc(COc2cccnc2N)c1 [TAC5-a, 3-((3-aminobenzyl)oxy)pyridin-2-amine]
effect on back skin inflammation compared with methotrexate (MTX) ([1]; FIG. 5B): relatively weaker
spleen hypertrophy ([1]; FIG. 5D): adequately prevented
thickness of the epidermis and the dermis (H&E) ([1]; FIG. 5F): therapeutic effects similar to those of the treatment group were observed
expression of CD68 in skin lesions (immunohistochemistry) ([1]; FIG. 5H): effectively reduced
PASI score (psoriasis area and severity index) ([1]; fourth day of treatment, decreased from 8.0 or higher, FIG. 5C): less than 4.0
degree of inflammation in the back skin ([1]; injected daily at 50, 100 and 200 nmol/g, FIG. 5B): reversal of the degree of inflammation was evident
TLR7/8-mediated IL-6 expression [2]: inhibited
